Assay results reported in publication PMC8160934, “Different Biological Activities of Histidine-Rich Peptides Are Favored by Variations in Their Design” (Toxins, 2021).
In brackets after ≈: the same amount, converted by molar mass. Entries after “also recorded” stand apart in the source; their conditions may differ. Like-named read-outs stand apart in the source and are kept apart here. Where a SMILES comes first, the peptide text is derived from it.

Key:
[1] = tested on: E. coli bacteria (ATCC 25922); test: Broth microdilution antibacterial assay (MIC) in Mueller–Hinton broth, pH 5; format: cell-based; settings: for MIC50: E. coli, Mueller–Hinton broth pH 5, x50 from Origin fits of the growth curves of Figure 3 (concentration range 100 µM to 0.52 µM), fit error given, * error estimated in the range of the 1.5-fold dilution steps
Description: Therefore, the antibacterial properties of both series of peptides were analyzed in Mueller–Hinton (MH) broth at pH 5 by determining the minimal inhibitory concentrations (MICs).
Figure 3 Bacterial growth as a function of peptide concentration for the LAH4-Ln (A) and the LAH4-An series (B). The average of two experimental data sets (each data point derived from triplicates under the same experiment conditions) covering the concentration range 100 µM to 0.52 µM are shown by the relative bacterial growth when compared to bacteria in the absence of peptide (=100%). To guide the eye, the data have been fitted with the function ymin + (ymax − ymin)/(1 + (x/xo)^p)^s using the OriginPro software. […] The assay was performed in Mueller–Hinton broth, pH 5.
A broth microdilution assay was used to determine the minimal inhibitory concentration (MIC). A peptide aliquot of 1 mg was first solubilized in 50% ethanol (10 mM) then diluted in H2O to get a 300 μM peptide stock solution.
For all the activity tests, E. coli bacteria (ATCC® 25922^TM, Thermo Fisher Scientific, Courtaboeuf, France) were used. Briefly, some colonies from E. coli spread on gelose were resuspended in Mueller–Hinton broth, pH 7.4. After incubation at 37 °C for about 6 h this preculture was diluted to OD550nm = 0.2 in MH at pH5 and allowed to grow to reach the exponential phase (OD550nm = 1–2). After two-step dilution in MH pH5, the working bacteria suspension corresponding to 1.10^5–2.10^5 colony-forming units (CFU)/mL was obtained.
The antimicrobial testing was carried out in 96-well microplates (sterile polystyrene untreated with F-bottom, Thermo Scientific Nunc A/S, Roskilde, Denmark). The first column of the plate contains the highest final concentration (Cf) of peptide to test (two experiments were done: the first one starting at Cf 100 μM and a second one starting at 30 μM). All samples were added to the first column of the plate and subsequently spread onto the plate by a 1.5-fold dilution series in 10 steps. The last columns correspond to the positive and negative control conditions, respectively. Finally, the bacterial working suspension was distributed (50 μL at 1.10^5–2.10^5 CFU/mL in MH1X at pH 5) to each well except for the negative control (MH1X at pH5). The final volume was 100 μL/well and the range of peptide concentrations tested was from 100 μM to 1.73 μM for the first experiment and from 30 μM to 0.52 μM for the second experiment. The microplates were incubated at 37 °C for 12 h before bacterial growth was assessed by measuring the OD600. The initial bacterial density for each experiment was checked by spreading 100 μL of the working bacterial suspension, diluted 1/100 and 1/500 in MH1X, pH 5 on MH agar plates. After overnight incubation at 37 °C, the CFU were counted and the CFU/mL were determined. The percentage of bacterial growth compared to the positive control allows one to determine the MIC. The MIC values represent the average of the lowest tested peptide concentration (from both experiments) where most (at least 80%) of the bacterial growth is inhibited.

[2] = tested on: VSV and GALVTR pseudotyped lentiviruses; settings: cited from earlier work
[3] = in the transfection and other phosphate-containing buffers; cited from earlier work
[4] = tested on: HCT116 cells; test: Luciferase protein transduction; format: cell-based, human; settings: HCT116, 2 µg recombinant luciferase with 10-32 µg peptide, 3 h in serum-free medium, mean of duplicates; result in words
Description: To perform a rapid screening of the protein transduction activities of the two series of peptides, we selected to deliver the luciferase protein from Photinus pyralis, which has a molecular weight (MW) of 62 kDa and an isoelectric point (pI) of 6.3. Indeed, the measurement of the activity of this enzyme is fast and very sensitive. […] Increasing amounts of peptides were added to a fixed amount of luciferase, and after 3 h of incubation with the human colon cancer cells HCT116, enzymatic activity was measured.
Figure 1 Transduction of the luciferase protein. HCT116 cells in 48-well plates were treated with 2 µg of recombinant luciferase (Rec. Luc) (per duplicate) in the presence or absence of LAH4 peptides (LAH4-Ln series in (A) and LAH4-An series in (B)). After 3 h of incubation in serum-free medium, cells were washed once with 1 mL/well of phosphate buffer saline (PBS), lysed, and the luciferase activity was determined. […] For each peptide, four conditions were tested: 10, 16, 24 and 32 µg of peptide/2 µg recombinant luciferase, except for LAH4 (16, 24 and 32 µg). Non-complexed recombinant luciferase was used as the control (black bar). The hydrophilic angles are shown in italics. […] It is uncertain whether it counts as a property result. The luciferase activities are shown only as bars, with no printed numbers, and are left out.
Protein complexes were generated using increasing peptide/protein w/w ratios.
Then, 0.25 mL of serum-free medium containing the peptide/protein complexes was transferred into each well. After an incubation time of 3 h at 37 °C the medium was removed, cells were washed once with 1 mL/well of PBS, and then 100 μL of lysis buffer was added per well. Luciferase activity and protein content were measured as described above.

[5] = tested on: E. coli bacteria (ATCC 25922); settings: cited from earlier work
Description: Therefore, the antibacterial properties of both series of peptides were analyzed in Mueller–Hinton (MH) broth at pH 5 by determining the minimal inhibitory concentrations (MICs). […] Higher antimicrobial activity is observed when the angle increases. […] In contrast, for ...

[6] = naturally occurring antimicrobial peptides; cited from earlier work
Excerpt: The pronounced antimicrobial activities of cationic amphipathic peptides including LAH4 sequences have been associated with the perforation of microbial membranes. Indeed, under conditions where the peptides align along the membrane surface, high concentrations of LAH4 peptides result in the lysis of lipid bilayers. It is therefore unexpected that antimicrobial activity is highest for large hydrophilic angles, i.e., in inverse correlation with calcein release (Table 2, Figure 5). However, some of the naturally occurring antimicrobial pept ...

[7] = tested on: HCT116 cells; test: Saporin delivery, MTS cell viability; format: cell-based, human; settings: HCT116, 0.54 µg/triplicate non-complexed saporin, 2 h 30 min, MTS two days later; result in words
Description: Figure 2 Transduction of the plant toxin saporin. HCT116 cells plated in 96-well plates were treated with 0.54 µg/triplicate of saporin in the absence or presence of LAH4 peptides (LAH4-Ln series in (A) and LAH4-An series in (B)). […] Two days later, an MTS assay was performed. The cell viability efficiency is expressed relative to untreated cells (=100%). […] For each peptide 3 conditions were tested: 4.05, 5.4 and 8.1 µg of peptide/0.54 µg saporin. Untreated cells (=100%; purple bar) and non-complexed saporin (black bar) were used as the control. The hydrophilic angles are shown on top in italics. […] The cell viability values appear only as bars and are not printed, so none are given. […]
Cell metabolic activity was measured by using an MTS (3-(4,5-dimethylthiazol-2-yl)-5-(3-carboxymethoxyphenyl)-2-(4-sulfophenyl)-2H-tetrazolium) assay (CellTiter 96® AQ ueous One Solution Cell Proliferation Assay, Promega). […] Plates were read at 490 nm (reagent absorbance) and 680 nm (background) (SP200, Safas, Monaco). The results were expressed by the subtraction of background absorbance and the expression of viability relative to non-treated controls (considered as 100% viability).

[8] = tested on: U87 cells; test: DNA transfection with p-Luc plasmid, luciferase expression; settings: 1.5 µg pDNA with 7.5-25 µg peptide, 2 h 30 min, read one day post-transfection, mean of duplicates, result in words
Description: In vitro cell transfection experiments were performed using the plasmid p-Luc (7.6 kb), which is an expression plasmid encoding the firefly luciferase gene under the control of the human cytomegalovirus (CMV) immediate–early promoter. In total, 55,000 U87 cells were plated in 48-well plates one day before the experiment was performed. For transfection, 0.25 mL of serum-free culture medium containing the DNA complexes was deposited into each well of the duplicate. After incubation for approximately 2 h 30 min at 37 °C the medium was replaced with a fresh one containing serum. Luciferase activity was measured as described below in the cell lysate one day after transfection.
Transfection complexes were prepared as follows: for a duplicate, 1.5 μg of plasmid DNA and the desired amount of peptide were each diluted into 25 μL of acetate buffer pH 5 and gently mixed. DNA complexes were generated using increasing peptide/DNA w/w ratios. After 20 min of incubation at room temperature, the mixture was diluted with culture medium to obtain a final volume of 0.5 mL.
For luciferase activity, cells were harvested in 100 μL of lysis buffer (8 mM MgCl2, 1 mM DTT, 1 mM EDTA, 0.6% Triton X-100, 15% glycerol, and 25 mM Tris-phosphate buffer pH 7.8). The cell lysate was then transferred into Eppendorf tubes and centrifuged for 7 min at 10,000× g to pellet debris. Luciferase light units were measured in a 96-well plate format with a Centro LB luminometer (Berthold) from an aliquot of the supernatant (2 μL) with 1 s integration after automatic injection of 50 μL assay buffer (lysis buffer without Triton X-100 but supplemented with 2 mM ATP) and 50 μL of a luciferin solution (167 μM in water). Luciferase background was subtracted from each value and the protein content of the transfected cells was measured by Bradford dye-binding using the BioRad protein assay (Bio-Rad). The transfection efficiency was expressed as light units/s/mg protein (light units measured over a period of 1 s, and the values were then normalized after measurement of the amount of protein present in each well). The reported values are the mean of duplicates. Error bars represent the standard deviation of the mean.
glioblastoma U87 cells. Increasing amounts of peptide were mixed with a constant amount of reporter
plasmid (1.5 µg per duplicate of pDNA) and the complexes were incubated for 2h 30min with the
cells plated in 48-well plates. The transfection medium was then removed and replaced with fresh
culture medium supplemented with 10% serum. Luciferase activity was measured one day post-
transfection. The transfection efficiency is expressed as light units/s/mg protein and the reported
values are the mean of duplicates. Error bars represent the standard deviation of the mean.

Compound: H-KKALLHAALAHLLALAHHLLALLKKA-NH2 [LAH4-A4, isomer of LAH4, LAH4-An series, also named Vectofusin-1]
- MIC50 [1]: 6 µM
- lentiviral transduction enhancement [2]: highly efficient; also recorded: enhances the transduction
- formation of fibers [3]: formation of fibers

Compound: H-KKALLALALHHLAHLALHLALALKKA-NH2 [LAH4]
- luciferase protein transduction efficiency (luciferase activity, light units/s/mg protein) [4]: the most efficient peptides
- pH dependence of antimicrobial activity ([5]; E. coli, pH 5 compared to pH 7.5, result in words): considerably more pronounced at pH 5
- MIC ([5]; reference peptide LAH4, E. coli): 8.8 µM

Compound: magainin 2
- hydrophilic angle [6]: 180 °

Compound: saporin
- cell death induced by saporin alone [7]: low levels of cell death

Compound: cecropin
- hydrophilic angle [6]: 180 °

Compound: CC(C)C[C@H](NC(=O)[C@H](C)NC(=O)[C@H](C)NC(=O)[C@H](CC(C)C)NC(=O)[C@H](CC(C)C)NC(=O)[C@H](Cc1c[nH]cn1)NC(=O)[C@H](CC(C)C)NC(=O)[C@H](C)NC(=O)[C@H](Cc1c[nH]cn1)NC(=O)[C@H](C)NC(=O)[C@H](CC(C)C)NC(=O)[C@H](CC(C)C)NC(=O)[C@H](C)NC(=O)[C@H](CCCCN)NC(=O)[C@@H](N)CCCCN)C(=O)N[C@@H](C)C(=O)N[C@@H](CC(C)C)C(=O)N[C@@H](Cc1c[nH]cn1)C(=O)N[C@@H](CC(C)C)C(=O)N[C@@H](C)C(=O)N[C@@H](Cc1c[nH]cn1)C(=O)N[C@@H](CC(C)C)C(=O)N[C@@H](CC(C)C)C(=O)N[C@@H](CCCCN)C(=O)N[C@@H](CCCCN)C(=O)N[C@@H](C)C(N)=O [LAH4-A1] (H-KKALLAHALHLLAALALHLAHLLKKA-NH2)
- MIC ([1]; E. coli ATCC 25922, broth microdilution, Mueller–Hinton broth pH 5, 37 °C, 12 h, OD600, concentration at which bacterial growth reaches a minimum (at least 80% inhibited), average of two experiments, each in triplicate): 25 µM (≈ 69.5 µg/mL)
- MIC50 [1]: 13.9 µM (≈ 38.6 µg/mL)
- luciferase protein transduction efficiency (luciferase activity, light units/s/mg protein) [4]: among the least efficient
- DNA transfection activity (luciferase activity) [8]: highest activity
